Test results published in ChEMBL document CHEMBL4680216, “Comparative analysis of the dual EGFR-DNA targeting and growth inhibitory properties of 6-mono-alkylamino- and 6,6-dialkylaminoquinazoline-based type II combi-molecules” (Eur J Med Chem, 2020).
Activity calls are given as the source filed them. The calls are words filed in the database; no cut-off is given here.

Key:
[1] = test system: NCI-H1975; assay: Potency index, ratio of gefitinib IC50 to test compound IC50 for growth inhibition of human NCI-H1975 cells; type: functional
[2] = test system: Calf thymus DNA; assay: Binding affinity to calf thymus DNA assessed as compound hydrolysis at 10 mM after 5 days by LC-MS/MS analysis; type: nucleic-acid assay; conditions: Bos taurus, time 5.0 day
[3] = test system: Calf thymus DNA; assay: Binding affinity to calf thymus DNA assessed as guanine alkylated adduct formation at 10 mM after 5 days by LC-MS/MS analysis; type: nucleic-acid assay; conditions: Bos taurus, time 5.0 day
[4] = target: T1, Epidermal growth factor receptor (Homo sapiens, UniProt P00533); assay: Inhibition of EGFR phosphorylation in human PC-9 cells assessed as downregulation MAPK pathway at 1 to 10 uM preincubated for 2 hrs followed by EGF stimulation and measured after 30 mins by Western blot analysis; type: cell-based; conditions: dose 1-10 µM, time 2.5 hrs
T1 sequence (P00533 whole entry): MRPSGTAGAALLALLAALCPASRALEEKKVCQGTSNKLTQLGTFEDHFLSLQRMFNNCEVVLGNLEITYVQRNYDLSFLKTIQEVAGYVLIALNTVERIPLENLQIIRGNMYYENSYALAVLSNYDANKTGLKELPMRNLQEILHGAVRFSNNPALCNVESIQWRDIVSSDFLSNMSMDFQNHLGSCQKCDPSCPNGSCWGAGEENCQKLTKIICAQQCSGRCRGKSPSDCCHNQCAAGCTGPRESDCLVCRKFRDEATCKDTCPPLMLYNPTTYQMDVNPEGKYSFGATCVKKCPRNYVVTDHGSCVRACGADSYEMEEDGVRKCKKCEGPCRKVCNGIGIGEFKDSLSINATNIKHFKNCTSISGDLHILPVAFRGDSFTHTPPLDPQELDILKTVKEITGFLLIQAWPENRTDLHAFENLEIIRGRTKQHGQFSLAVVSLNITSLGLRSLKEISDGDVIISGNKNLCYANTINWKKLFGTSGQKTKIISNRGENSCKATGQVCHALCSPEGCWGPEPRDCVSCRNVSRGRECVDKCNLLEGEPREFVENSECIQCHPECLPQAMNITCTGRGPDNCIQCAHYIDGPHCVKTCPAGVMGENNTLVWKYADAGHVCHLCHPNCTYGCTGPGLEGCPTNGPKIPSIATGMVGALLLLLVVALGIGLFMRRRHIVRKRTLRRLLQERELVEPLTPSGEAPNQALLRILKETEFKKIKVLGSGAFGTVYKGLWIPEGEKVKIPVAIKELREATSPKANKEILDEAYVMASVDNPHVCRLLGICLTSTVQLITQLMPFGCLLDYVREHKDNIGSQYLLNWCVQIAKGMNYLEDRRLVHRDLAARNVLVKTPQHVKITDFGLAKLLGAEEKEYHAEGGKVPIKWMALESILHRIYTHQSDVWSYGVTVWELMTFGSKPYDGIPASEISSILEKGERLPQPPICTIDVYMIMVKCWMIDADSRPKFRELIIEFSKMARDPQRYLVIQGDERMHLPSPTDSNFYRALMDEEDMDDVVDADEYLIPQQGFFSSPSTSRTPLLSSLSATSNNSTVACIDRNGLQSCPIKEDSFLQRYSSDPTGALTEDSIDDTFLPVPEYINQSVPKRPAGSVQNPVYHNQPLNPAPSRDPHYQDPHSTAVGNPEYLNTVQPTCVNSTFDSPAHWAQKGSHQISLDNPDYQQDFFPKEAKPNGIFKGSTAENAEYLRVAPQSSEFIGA

[5] = test system: A549; assay: Potency index, ratio of gefitinib IC50 in presence of chlorambucil to test compound IC50 for growth inhibition of human A549 cells; type: functional
[6] = target: T1, Epidermal growth factor receptor; assay: Inhibition of EGFR phosphorylation in human PC-9 cells assessed as downregulation AKT pathway at 1 to 10 uM preincubated for 2 hrs followed by EGF stimulation and measured after 30 mins by Western blot analysis; type: cell-based; conditions: dose 1-10 µM, time 2.5 hrs
[7] = Toxicity in po dosed CD-1 mouse assessed as maximum tolerated dose; type: organism-based; conditions: in vivo
[8] = target: T1, Epidermal growth factor receptor; assay: Inhibition of EGFR phosphorylation in human A549 cells assessed as downregulation MAPK pathway at 1 to 10 uM preincubated for 2 hrs followed by EGF stimulation and measured after 30 mins by Western blot analysis; type: cell-based; conditions: dose 1-10 µM, time 2.5 hrs
[9] = test system: A549; assay: Potency index, ratio of gefitinib IC50 to test compound IC50 for growth inhibition of human A549 cells; type: functional
[10] = target: T1, Epidermal growth factor receptor; assay: Irreversible inhibition of EGFR in human A549 cells at 2 uM preincubated for 2 hrs followed by compound wash out with serum free media followed by EGF stimulation and measured after 30 mins by Western blot analysis; type: cell-based; conditions: time 2.5 hrs
[11] = test system: PC-9; assay: Growth inhibition of human PC-9 cells incubated for 5 days by SRB assay; type: functional, cell-based; conditions: PC-9, 120 h
[12] = target: T1, Epidermal growth factor receptor; assay: Inhibition of EGFR phosphorylation in human A549 cells at 1 to 10 uM preincubated for 2 hrs followed by EGF stimulation and measured after 30 mins by Western blot analysis; type: cell-based; conditions: dose 1-10 µM, time 2.5 hrs
[13] = test system: A549; assay: Induction of DNA damage in human A549 cells at 0.1 to 10 uM after 2 hrs by comet assay; type: functional, cell-based; conditions: dose 0.1-10 µM
[14] = test system: Calf thymus DNA; assay: Binding affinity to calf thymus DNA assessed as adenine alkylated adduct formation at 10 mM after 5 days by LC-MS/MS analysis; type: nucleic-acid assay; conditions: Bos taurus, time 5.0 day
[15] = target: T1, Epidermal growth factor receptor; assay: Inhibition of EGFR (unknown origin) using poly (Glu,Tyr) 4:1 as substrate incubated for 8 mins in presence of ATP by colorimetric analysis
[16] = target: T1, Epidermal growth factor receptor; assay: Inhibition of EGFR phosphorylation in human A549 cells assessed as downregulation AKT pathway at 1 to 10 uM preincubated for 2 hrs followed by EGF stimulation and measured after 30 mins by Western blot analysis; type: cell-based; conditions: dose 1-10 µM, time 2.5 hrs
[17] = test system: A549; assay: Growth inhibition of human A549 cells incubated for 5 days by SRB assay; type: functional, cell-based; conditions: A549, 120 h
[18] = test system: NCI-H1975; assay: Growth inhibition of human NCI-H1975 cells incubated for 5 days by SRB assay; type: functional, cell-based; conditions: NCI-H1975, 120 h
[19] = test system: NCI-H1975; assay: Potency index, ratio of gefitinib IC50 in presence of chlorambucil to test compound IC50 for growth inhibition of human NCI-H1975 cells; type: functional
[20] = target: T1, Epidermal growth factor receptor; assay: Inhibition of EGFR phosphorylation in human PC-9 cells at 1 to 10 uM preincubated for 2 hrs followed by EGF stimulation and measured after 30 mins by Western blot analysis; type: cell-based; conditions: dose 1-10 µM, time 2.5 hrs
[21] = target: T1, Epidermal growth factor receptor; assay: Inhibition of EGFR phosphorylation in human NCI-H1975 cells at 1 to 10 uM preincubated for 2 hrs followed by EGF stimulation and measured after 30 mins by Western blot analysis; type: cell-based; conditions: dose 1-10 µM, time 2.5 hrs
[22] = target: T1, Epidermal growth factor receptor; assay: Inhibition of EGFR phosphorylation in human NCI-H1975 cells assessed as downregulation AKT pathway at 1 to 10 uM preincubated for 2 hrs followed by EGF stimulation and measured after 30 mins by Western blot analysis; type: cell-based; conditions: dose 1-10 µM, time 2.5 hrs
[23] = target: T1, Epidermal growth factor receptor; assay: Inhibition of EGFR phosphorylation in human NCI-H1975 cells assessed as downregulation MAPK pathway at 1 to 10 uM preincubated for 2 hrs followed by EGF stimulation and measured after 30 mins by Western blot analysis; type: cell-based; conditions: dose 1-10 µM, time 2.5 hrs

## CN(CCCl)c1ccc2ncnc(Nc3cccc(Br)c3)c2c1
[1]
  Ratio IC50: 2
[2]
  Activity: Active
[3]
  Activity: Active
[4]
  inhibition: Active
[5]
  Ratio IC50: 2
[6]
  inhibition: Active
[7]
  MTD: 150 mg/kg
[8]
  inhibition: Active
[9]
  Ratio IC50: 2
[10]
  inhibition: inactive
[11]
  IC50: 0.21 µM
[12]
  inhibition: Active
[13]
  Activity: Active
[14]
  Activity: Active
[15]
  IC50: 0.504 µM
[16]
  inhibition: Active
[17]
  IC50: 3.16 µM
[18]
  IC50: 2.81 µM
[19]
  Ratio IC50: 2
[20]
  inhibition: Active

## OCCN(CCO)c1ccc2ncnc(Nc3cccc(Br)c3)c2c1
[11]
  IC50: 0.07 µM
[17]
  IC50: 46.6 µM
[18]
  IC50: 18.1 µM

## CC(=O)OCCN(CCO)c1ccc2ncnc(Nc3cccc(Br)c3)c2c1
[11]
  IC50: 0.086 µM
[17]
  IC50: 48 µM
[18]
  IC50: 16 µM

## CC(=O)OCCN(CCOC(C)=O)c1ccc2ncnc(Nc3cccc(Br)c3)c2c1
[11]
  IC50: 0.13 µM
[17]
  IC50: 52.6 µM
[18]
  IC50: 20.2 µM

## CN(CCO)c1ccc2ncnc(Nc3cccc(Br)c3)c2c1
[11]
  IC50: 0.103 µM
[17]
  IC50: 34.5 µM
[18]
  IC50: 11.3 µM

## ClCCN(CCCl)c1ccc2ncnc(Nc3cccc(Br)c3)c2c1
[2]
  Activity: Active
[3]
  Activity: Active
[4]
  inhibition: Active
[6]
  inhibition: Active
[21]
  inhibition: Active
[7]
  MTD: 150 mg/kg
[8]
  inhibition: Active
[10]
  inhibition: Active
[11]
  IC50: 0.203 µM
[22]
  inhibition: Active
[12]
  inhibition: Active
[13]
  Activity: Active
[14]
  Activity: Active
[15]
  IC50: 1.26 µM
[23]
  inhibition: Active
[16]
  inhibition: Active
[17]
  IC50: 6.51 µM
[18]
  IC50: 6.07 µM
[20]
  inhibition: Active

## COc1cc2ncnc(Nc3ccc(F)c(Cl)c3)c2cc1OCCCN1CCOCC1
[13]
  Activity: inactive

## O=C(O)CCCc1ccc(N(CCCl)CCCl)cc1 [CHLORAMBUCIL]
[21]
  inhibition: inactive
[11]
  IC50: 7.17 µM
[12]
  inhibition: inactive
[13]
  Activity: inactive
[17]
  IC50: 24.5 µM
[18]
  IC50: 28.2 µM
[20]
  inhibition: inactive

## ClCCNc1ccc2ncnc(Nc3cccc(Br)c3)c2c1
[2]
  Activity: Active
[3]
  Activity: Active
[4]
  inhibition: Active
[6]
  inhibition: Active
[7]
  MTD: 150 mg/kg
[8]
  inhibition: Active
[10]
  inhibition: Active
[11]
  IC50: 0.09 µM
[12]
  inhibition: Active
[13]
  Activity: Active
[14]
  Activity: Active
[16]
  inhibition: Active
[17]
  IC50: 2.06 µM
[18]
  IC50: 0.48 µM
[20]
  inhibition: Active

## CC(=O)OCCN(C)c1ccc2ncnc(Nc3cccc(Br)c3)c2c1
[11]
  IC50: 0.098 µM
[17]
  IC50: 30.5 µM
[18]
  IC50: 9.4 µM
